{"source": "patent US20120015812A1", "about": "“Mixtures of strobilurins with triexapac-ethyl” (BASF SE, priority 2003, published 2012)", "key": {"[1]": {"test_system": "soybean plants (cv. “Delta Pine”)", "assay": "Reduction of ethylene formation in leaves of soybean plants (gas chromatography)", "type": "in vivo", "conditions": "for Ethylene Evolution per Unit Leaf Weight [% of Control]: greenhouse, leaf spray 750 l/ha, 24 hours after treatment, shoots wilted 10 min, incubated 60 min, g/ha of ai: Co++ 40, pyraclostrobin 100, salicylic acid 500", "procedure": "Soybean plants were raised under greenhouse conditions with two plants each per 12-cm pot. Spray treatments of the leaves were carried out with a volume of liquid of 750 l/ha when the plants had developed one to two trifoliate leaves. 24 hours after treatment, the shoots of the soybean plants were dissected above the cotyledons and wilted for 10 minutes under laboratory conditions. Shoots representing a distinct treatment were incubated for 60 minutes under laboratory conditions in a 100-ml Erlenmeyer flask sealed with a rubber cap. Thereafter, gas samples were taken and analyzed for their ethylene content by gas chromatography.\nReduction of ethylene formation in leaves of soybean plants (cv. “Delta Pine”)"}, "[2]": {"test_system": "soybeans (cv. “Embrapa 48”)", "assay": "Yield improvement of soybeans naturally infected with Phakopsora pachyrhizi", "type": "in vivo, soybean", "conditions": "as in Example 3; pyraclostrobin 112.5 g/ha, Co++ 29 g/ha, alone or combined", "source_text": "Seeds of soybean cv. “Embrapa 48” were planted and grown under standard conditions with adequate supply of water and nutrients. Infection with Phakopsora pachyrhizi occurred naturally. The active ingredients have been applied twice, 62 and 68 days after seeding.\nYield improvement of soybeans (cv. “Embrapa 48)"}, "Phakopsora pachyrhizi": {"test_system": "Phakopsora pachyrhizi", "assay": "Spray treatment of soybeans preinfected with Phakopsora pachyrhizi: infection by pathogen", "type": "in vivo", "conditions": "soybeans cv. RS10, 8-12% preinfection, spray application, 8 days after treatment; 133 g/ha pyraclostrobin", "procedure": "(§1) During fruit formation, soybeans of the cultivar RS10 with 8-12% preinfection by Phakopsora pachyrhizi were treated by spray application using customary sprayers with a mixture of 133 g/ha of pyraclostrobin, 80 g/ha of CoCl2×6 H2O(=20 g/ha of cobalt) and 100 g/ha of prohexadione-Ca. Entirely untreated plants and plants treated with 133 g/ha of pyraclostrobin were used for comparison."}, "[3]": {"test_system": "soybeans of the cultivar RS10", "assay": "Spray treatment of rust-preinfected soybeans: leaf drop and yield", "type": "in vivo, soybean", "conditions": "soybeans cv. RS10, 8-12% preinfection by Phakopsora pachyrhizi, 8 days after treatment; pyraclostrobin 133 g/ha alone or with 80 g/ha CoCl2×6 H2O and 100 g/ha prohexadione-Ca", "procedure": "as §1"}}}
{"molecule": "O.O.O.O.O.O.[Cl-].[Cl-].[Co+2]", "note": "[CoCl2 × 6 H2O, CoCl2×6 H2O]", "values": [{"measurement": "Ethylene Evolution per Unit Leaf Weight [% of Control]", "setting": "[1]", "result": "41 % of Control"}]}
{"molecule": "[Co+2]", "note": "[Co^++]", "values": [{"measurement": "seed yield improvement above the control", "setting": "[2]", "result": 22, "unit": "%"}]}
{"molecule": "COC(=O)N(OC)c1ccccc1COc1ccn(-c2ccc(Cl)cc2)n1", "note": "[pyraclostrobin, methyl N-{2-[1-(4-chlorophenyl)-1H-pyrazol-3-yloxymethyl]phenyl}(N-methoxy)carbamate]", "values": [{"measurement": "infection by pathogen", "setting": "Phakopsora pachyrhizi", "result": "less infection by pathogen than the entirely untreated plants"}, {"measurement": "leaf drop", "setting": "[3]", "result": "considerable leaf drop"}, {"measurement": "ethylene formation in drought-stressed soybean leaves", "setting": "[1]; summary in words of Example 2", "result": "inhibits ethylene formation"}, {"measurement": "seed yield improvement above the control", "setting": "[2]", "result": 24, "unit": "%"}]}
{"molecule": "O=C(O)c1ccccc1O", "note": "[Salicylic Acid]", "values": [{"measurement": "Ethylene Evolution per Unit Leaf Weight [% of Control]", "setting": "[1]", "result": "97 % of Control"}]}
